Assays:
[1] = target: T1, human GRα protein (Homo sapiens, UniProt P04150); experiment: Binding inhibitory assay (displacement of 3H-dexamethasone from the cytoplasm fraction of baculovirus-infected insect cells); conditions: 100 nM test compound; 3H-Dex; NSB with 10 μM dexamethasone; read-out: Binding Inhibitory ratio (%) of 100 nM of test compound
T1 construct: made in house; host or cells: insect cells infected with baculovirus; cytoplasm fraction used
T1 sequence (P04150 1-777): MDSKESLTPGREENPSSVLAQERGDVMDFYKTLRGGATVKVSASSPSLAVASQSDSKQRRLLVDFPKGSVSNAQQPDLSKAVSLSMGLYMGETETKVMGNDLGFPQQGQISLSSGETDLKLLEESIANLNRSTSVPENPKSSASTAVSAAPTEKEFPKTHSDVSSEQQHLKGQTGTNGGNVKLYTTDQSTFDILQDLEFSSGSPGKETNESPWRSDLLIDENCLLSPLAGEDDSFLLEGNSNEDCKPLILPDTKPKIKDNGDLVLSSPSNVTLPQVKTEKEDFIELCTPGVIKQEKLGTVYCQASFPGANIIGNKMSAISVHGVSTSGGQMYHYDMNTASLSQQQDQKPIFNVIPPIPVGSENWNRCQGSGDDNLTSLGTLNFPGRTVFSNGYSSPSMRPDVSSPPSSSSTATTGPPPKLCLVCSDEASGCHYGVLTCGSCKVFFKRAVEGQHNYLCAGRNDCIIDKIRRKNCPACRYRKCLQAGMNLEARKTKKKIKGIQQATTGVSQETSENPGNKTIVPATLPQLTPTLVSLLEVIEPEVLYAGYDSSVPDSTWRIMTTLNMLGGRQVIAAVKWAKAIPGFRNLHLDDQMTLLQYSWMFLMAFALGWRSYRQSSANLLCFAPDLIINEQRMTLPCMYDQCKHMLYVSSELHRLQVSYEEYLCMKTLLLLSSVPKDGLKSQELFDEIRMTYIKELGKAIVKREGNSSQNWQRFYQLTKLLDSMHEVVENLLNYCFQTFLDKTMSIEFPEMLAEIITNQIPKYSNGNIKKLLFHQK
Experimental: Insect cells, which had been infected with baculovirus for expressing human GRα protein, were suspended in an approximately equal volume of a binding buffer (10 mM Tris-Cl, 1.5 mM EDTA, 10% glycerol, 5 mM DTT, 20 mM sodium molybdate, pH 7.6). The mixture was rapidly frozen with liquid nitrogen, and then melted at room temperature. This cycle was repeated totally twice in order to break the cell membrane. The mixture was ultracentrifuged under 100,000 g at 4° C. for one hour to give the supernatant, which was the cytoplasm fraction containing human GRα protein.
A polypropylene 96-well plate (manufactured by Costar Corporation, etc.) was placed on ice, and DMSO or a test compound (each 1 μl) was put into each well. A 10 nM ^3H-Dex solution (50 μl; tritiated dexamethasone; manufactured by Amersham) in the binding buffer, and a GR protein solution, i.e., a solution by diluting the above cytoplasm fraction with the binding buffer (50 μl) were added to each well, and the plate was lightly shaken with a plate mixer, and then left to stand at 4° C. for 16 to 20 hours (the final concentration of DMSO: 1%).
A 5% solution of dextran-coated active carbon (manufactured by Sigma) suspended in the binding buffer (50 μl) was put into each well, and the plate was lightly shaken with a plate mixer for 30 seconds. Then, the plate was centrifuged at 2500 rpm at 4° C. for 5 minutes, and the ^3H count in the supernatant (50 μl) was measured by a TopCount (manufactured by Perkin-Elmer Corporation). Each test compound was tested twice.
The binding activity was calculated as follows. The mean ^3H count in the presence of dexamethason (Dex) 10 μM was considered as NSB (non-specific binding), and the binding inhibitory ratio in each well was calculated by the following equation.
Binding Inhibitory Ratio (%)=100×{1−(cpm value of each well−NSB)/(mean cpm value of DMSO-well−NSB)}
(cpm means count per minute)
The mean binding inhibitory ratio of each well was calculated by the above equation to give a binding inhibitory ratio of each test compound.

[2] = tested on: H4-III-E cells; experiment: TAT (tyrosine aminotransferase) assay; assay type: cell-based; conditions: for activation at 10 µM / Agonistic activity of 10 μM test compound: 10 μM test compound alone, relative to maximum Dex-induced TAT activity (100%); for activation at 10 µM: read-out: Agonistic activity of 10 μM test compound; for Antagonistic activity of 10 μM test compound: 10 μM test compound together with 0.005 μM dexamethasone, inhibitory ratio against TAT activity increase by Dex
Experimental: H4-III-E cells, which had been continuously cultured in α-MEM medium A (supplemented with 10% inactivated FBS, 50 μM 2-mercapto-ethanol), were suspended in α-MEM medium A or α-MEM medium B (supplemented with 10% inactivated FBS, 50 μM 2-mercapto-ethanol, but without phenol red), and the cell suspension was seeded to a 96-well plate in an amount of 2×10^4 cells/100 μl/well, and the cells were cultured overnight. The supernatant in the medium was removed, and a test compound (100 μl, diluted with α-MEM medium A or α-MEM medium B) was added, and the cells were further cultured overnight. In order to measure the agonistic activity, a test compound was added alone, while in order to measure the antagonistic activity, a test compound was added simultaneously together with 0.005 μM dexamethasone and evaluated the extent of the inhibitory effect of said test compound against the TAT activity-inducing activity by dexamethasone.
The culture supernatant in the plate was removed by suction, and a cell lysate (20 μL; 1% NP-40, 0.2% Triton X-100, 0.25% DOC, 0.1% SDS, 1 mM EGTA, 150 mM NaCl, Tris (pH7.4), Protease inhibitor cocktail [2.5 mg/ml aprotinin, 2.5 mg/ml leupeptin, 2.5 mg/ml soybean trypsin inhibitor]) was added, and further thereto was added a TAT reaction reagent (150 μL; 10 N KOH, 0.125 M KH2PO4, 0.5 M α-ketoglutarate, 5 mM Pyridoxal-5′ phosphate, L-tyrosine), and the mixture was reacted at 37° C. for 15 minutes. Further, a 10N KOH (20 μL) was added thereto, and the mixture was reacted at 37° C. for 30 minutes, and the absorbance at 331 nm was measured by a microplate reader (SPECTRA MAX 250).
From the mean absorbance in the wells to which a test compound was added, the mean absorbance in the wells to which a compound and a TAT reaction solution were not added was subtracted.
Agonistic activity (%)=100×[(absorbance of the drug-treated group)−(absorbance of the group without TAT reaction reagent)]/[(absorbance of Dex-treated group)−(absorbance of the group without TAT reaction reagent)]
On the other hand, the antagonistic activity was calculated as follows.
Antagonistic activity (%)=Inhibitory ratio (%) against TAT activity increase by Dex=100−100×[(absorbance of the drug-treated group)−(absorbance of the group without a drug)]/[(absorbance of Dex-treated group)−(absorbance of the group without a drug)]
With regard to the agonistic activity and the antagonistic activity, the results of 10% or more were expressed as O, while the results of less than 10% were expressed as X.

SMILES | inhibition at 0.1 µM [1] [%] | activation at 10 µM [2] [%] | Antagonistic activity of 10 μM test compound [2] | Agonistic activity of 10 μM test compound [2]
O=[N+]([O-])c1ccc2c(C(O)(CN3CCN(S(=O)(=O)c4ccccc4)CC3)C(F)(F)F)cn(Cc3ccccc3)c2c1 (stereo not drawn) [Example 112, 2-(1-Benzyl-6-nitro-1H-indol-3-yl)-1,1,1-trifluoro-3-[4-(phenylsulfonyl)piperazin-1-yl]propan-2-ol] | 98 | < 10 | ◯ | –
O=[N+]([O-])c1ccc2c(C(O)(CN3CCC(Oc4ccccc4Cl)CC3)C(F)(F)F)cn(Cc3ccccc3)c2c1 (stereo not drawn) [Example 119, 2-(1-Benzyl-6-nitro-1H-indol-3-yl)-3-[4-(2-chlorophenoxy)piperidin-1-yl]-1,1,1-trifluoropropan-2-ol] | 78 | – | ◯ | ◯
O=[N+]([O-])c1ccc2c(C(O)(CN3CCS(=O)(=O)CC3)C(F)(F)F)cn(Cc3ccccc3)c2c1 (stereo not drawn) [Example 120, 2-(1-Benzyl-6-nitro-1H-indol-3-yl)-3-(1,1-dioxidothiomorpholin-4-yl)-1,1,1-trifluoropropan-2-ol] | 97 | – | ◯ | ◯
O=[N+]([O-])c1ccc2c(C(O)(CN3CCC4(CC3)CS(=O)(=O)c3ccccc3O4)C(F)(F)F)cn(Cc3ccccc3)c2c1 (stereo not drawn) [Example 123, 2-(1-Benzyl-6-nitro-1H-indol-3-yl)-3-(4,4-dioxido-1′H-spiro[1,4-benzoxathiine-2,4′-piperidin]-1′-yl)-1,1,1-trifluoropropan-2-ol] | 72 | < 10 | ◯ | –
O=[N+]([O-])c1ccc2c(C(O)(CN3CCC4(CC3)CNc3ccccc3O4)C(F)(F)F)cn(Cc3ccccc3)c2c1 (stereo not drawn) [Example 128, 2-(1-Benzyl-6-nitro-1H-indol-3-yl)-3-(3,4-dihydro-1′H-spiro[1,4-benzoxazine-2,4′-piperidin]-1′-yl)-1,1,1-trifluoropropan-2-ol] | 64 | < 10 | – | –
COCCNCC(O)(c1cn(Cc2ccccc2)c2cc([N+](=O)[O-])ccc12)C(F)(F)F (stereo not drawn) [Example 131, 2-(1-Benzyl-6-nitro-1H-indol-3-yl)-1,1,1-trifluoro-3-[(2-methoxyethyl)amino]-propan-2-ol] | 84 | < 10 | – | –
O=[N+]([O-])c1ccc2c(C(O)(CNCCOc3ccccc3)C(F)(F)F)cn(Cc3ccccc3)c2c1 (stereo not drawn) [Example 133, 2-(1-Benzyl-6-nitro-1H-indol-3-yl)-1,1,1-trifluoro-3-[(2-phenoxyethyl)amino]-propan-2-ol] | 51 | < 10 | ◯ | –
O=[N+]([O-])c1ccc2c(C(O)(CNCc3ccccc3)C(F)(F)F)cn(Cc3ccccc3)c2c1 (stereo not drawn) [Example 137, 3-(Benzylamino)-2-(1-benzyl-6-nitro-1H-indol-3-yl)-1,1,1-trifluoropropan-2-ol] | 92 | – | ◯ | ◯
O=[N+]([O-])c1ccc2c(C(O)(CNCC3CCCO3)C(F)(F)F)cn(Cc3ccccc3)c2c1 (stereo not drawn) [Example 140, 2-(1-Benzyl-6-nitro-1H-indol-3-yl)-1,1,1-trifluoro-3-[(tetrahydrofuran-2-yl-methyl)amino]propan-2-ol] | 80 | < 10 | ◯ | –
COc1cccc(N2CCN(CC(O)(c3cn(Cc4ccccc4)c4cc([N+](=O)[O-])ccc34)C(F)(F)F)CC2)c1 (stereo not drawn) [Example 144, 2-(1-Benzyl-6-nitro-1H-indol-3-yl)-1,1,1-trifluoro-3-[4-(3-methoxyphenyl)-piperazin-1-yl]propan-2-ol] | 97 | – | ◯ | ◯
O=[N+]([O-])c1ccc2c(C(O)(Cn3cccn3)C(F)(F)F)cn(Cc3ccccc3)c2c1 (stereo not drawn) [Example 150, 2-(1-Benzyl-6-nitro-1H-indol-3-yl)-1,1,1-trifluoro-3-(1H-pyrazol-1-yl)propan-2-ol] | 98 | – | ◯ | ◯
O=C(N1CCOCC1)C(O)(c1cn(Cc2ccccc2)c2ccccc12)C(F)(F)F (stereo not drawn) [Example 152, 2-(1-Benzyl-1H-indol-3-yl)-1,1,1-trifluoro-3-morpholin-4-yl-3-oxopropan-2-ol] | 50 | < 10 | – | –
COC(CN1CCC(C(=O)c2ccccc2)CC1)(c1cn(Cc2ccccc2)c2cc([N+](=O)[O-])ccc12)C(F)(F)F (stereo not drawn) [Example 153, {1-[2-(1-Benzyl-6-nitro-1H-indol-3-yl)-3,3,3-trifluoro-2-methoxypropyl]piperidin-4-yl}(phenyl)methanone] | 91 | – | ◯ | ◯
O=[N+]([O-])c1ccc2c(C(O)(Cn3ccnc3)C(F)(F)F)cn(Cc3ccccc3)c2c1 (stereo not drawn) [Example 158, 2-(1-Benzyl-6-nitro-1H-indol-3-yl)-1,1,1-trifluoro-3-(1H-imidazol-1-yl)propan-2-ol] | 96 | < 10 | ◯ | –
O=[N+]([O-])c1ccc2c(C(O)(CN3CCCC(O)C3)C(F)(F)F)cn(Cc3ccccc3)c2c1 (stereo not drawn) [Example 165, 1-[2-(1-Benzyl-6-nitro-1H-indol-3-yl)-3,3,3-trifluoro-2-hydroxypropyl]piperidin-3-ol] | 95 | – | ◯ | ◯

From patent US20100190768A1, “NOVEL FUSED PYROLE DERIVATIVE” (Dainippon Sumitomo Pharma Co., Ltd., priority 2005, published 2010)
